Consider six compounds from patent US20220226425A1, “METHOD OF TREATING MELANOCORTIN-4 RECEPTOR PATHWAY-ASSOCIATED DISORDERS” (RHYTHM PHARMACEUTICALS, INC., priority 2015, published 2022).

What all share (test): cAMP accumulation via β-galactosidase (β-Gal) reporter system (cAMP Hunter GPCR assay)
What all share (assay type): cell-based
(cAMP levels reflect the balance of adenylyl cyclase and phosphodiesterase activity.)

One assay has as its target MC-3R (Homo sapiens, UniProt P41968). To be noted: for EC50: cAMP agonist readout, MC-3R, read-out: EC-50 (nM) MC-3R; for Selectivity Ratios MC4R/MC3R: ratio of EC-50 values, MC-3R versus MC-4R. An excerpt:
(§1) cAMP Accumulation Measurement via a β-Galactosidase (β-Gal) Reporter System
(§2) A chemiluminescence readout system that uses an enzyme fragment complementation (EFC) system with β-galactosidase (β-Gal) as the functional reporter system was used. This assay system for various melanocortin receptor systems is commercially available (cAMP Hunter GPCR assay system, Discoverx Corp, Fremont, Calif.). This assay utilizes the β-Gal enzyme that is split into two complementary portions; EA for Enzyme Acceptor and ED for Enzyme Donor. In the assay, the ED portion fused to cAMP is made to compete with cAMP generated by cells for binding to a cAMP-specific antibody. The EA is then added to form active β-Gal with any unbound ED-cAMP. […] Briefly, 10000 cells per well are plated overnight and each well (cells incubated with 10 μl assay buffer) is then incubated with 4X serial concentration of the test compound in the cell assay buffer (5 μL) and cAMP antibody reagent (5 μL) for 30 min at 37° C. The cell lysis buffer (20 μL) containing ED-cAMP coupled enzyme fragment and the reporter substrate (Emerald II-Galacton Star, 5:1) is then added and incubated for 60 min at room temperature. Next, 20 μL of EA β-Gal fragment reagent is added. After further incubation for 120 min at room temperature, the chemiluminescence is measured by a plate reader (Envision).

A further assay concerns the target MC-1R (Homo sapiens, UniProt Q01726). To be noted: ratio of EC-50 values, MC-1R versus MC-4R.
Description: as §1, §2

The target in the next assay is MC-5R (Homo sapiens, UniProt P33032). To be noted: for Selectivity Ratios MC4R/MC5R: ratio of EC-50 values, MC-5R versus MC-4R.
Description: as §1
A chemiluminescence readout system that uses an enzyme fragment complementation (EFC) system with β-galactosidase (β-Gal) as the functional reporter system was used. This assay system for various melanocortin receptor systems is commercially available (cAMP Hunter GPCR assay system, Discoverx Corp, Fremont, Calif.). This assay utilizes the β-Gal enzyme that is split into two complementary portions; EA for Enzyme Acceptor and ED for Enzyme Donor. In the assay, the ED portion fused to cAMP is made to compete with cAMP generated by cells for binding to a cAMP-specific antibody. The EA is then added to form active β-Gal with any unbound ED-cAMP. This active enzyme then converts a chemiluminescent substrate to generate an output signal that is recorded on a standard microplate reader. Briefly, 10000 cells per well are plated overnight and each well (cells incubated with 10 μl assay buffer) is then incubated with 4X serial concentration of the test compound in the cell assay buffer (5 μL) and cAMP antibody reagent (5 μL) for 30 min at 37° C. The cell lysis buffer (20 μL) containing ED-cAMP coupled enzyme fragment and the reporter substrate (Emerald II-Galacton Star, 5:1) is then added and incubated for 60 min at room temperature. Next, 20 μL of EA β-Gal fragment reagent is added. After further incubation for 120 min at room temperature, the chemiluminescence is measured by a plate reader (Envision).

Where a SMILES comes first, the peptide text is derived from it. Bridges are numbered along the chain shown (N, C = ends). [ ]: non-standard residue; d: D form. Pen = CC(C)(S)[C@H](N)C(=O)O; hCys = N[C@@H](CCS)C(=O)O Some results are limits rather than exact numbers.

Chain of MC-3R (P41968 whole entry): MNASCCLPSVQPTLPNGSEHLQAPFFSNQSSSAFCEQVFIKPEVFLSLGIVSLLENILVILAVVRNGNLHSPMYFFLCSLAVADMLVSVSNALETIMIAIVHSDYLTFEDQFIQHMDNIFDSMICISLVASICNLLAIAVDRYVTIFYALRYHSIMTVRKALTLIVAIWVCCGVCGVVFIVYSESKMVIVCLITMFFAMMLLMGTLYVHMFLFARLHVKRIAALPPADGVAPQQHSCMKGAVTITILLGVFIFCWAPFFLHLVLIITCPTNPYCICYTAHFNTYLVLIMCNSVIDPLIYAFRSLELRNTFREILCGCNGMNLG
Chain of MC-5R (P33032 whole entry): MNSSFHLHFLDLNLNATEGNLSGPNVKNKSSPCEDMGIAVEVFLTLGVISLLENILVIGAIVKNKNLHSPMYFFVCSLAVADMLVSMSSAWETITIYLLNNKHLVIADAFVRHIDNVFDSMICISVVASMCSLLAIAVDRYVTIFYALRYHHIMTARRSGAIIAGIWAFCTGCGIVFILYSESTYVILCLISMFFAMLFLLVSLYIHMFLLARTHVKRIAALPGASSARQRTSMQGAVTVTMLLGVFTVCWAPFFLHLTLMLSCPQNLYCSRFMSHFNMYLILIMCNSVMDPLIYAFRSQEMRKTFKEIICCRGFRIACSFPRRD
Chain of MC-1R (Q01726 whole entry): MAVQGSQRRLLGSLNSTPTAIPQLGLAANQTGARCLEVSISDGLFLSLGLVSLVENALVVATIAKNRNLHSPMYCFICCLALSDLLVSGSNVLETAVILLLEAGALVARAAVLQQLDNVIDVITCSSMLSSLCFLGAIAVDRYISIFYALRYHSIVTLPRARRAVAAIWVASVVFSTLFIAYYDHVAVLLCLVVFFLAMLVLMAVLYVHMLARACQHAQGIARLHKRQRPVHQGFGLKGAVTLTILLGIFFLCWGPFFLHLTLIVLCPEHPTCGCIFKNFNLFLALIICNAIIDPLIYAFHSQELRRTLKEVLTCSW

With `CC(=O)N[C@@H](CCCNC(=N)N)C(=O)N[C@H]1CCSSC(C)(C)[C@@H](C(N)=O)NC(=O)[C@H](Cc2c[nH]c3ccccc23)NC(=O)[C@H](CCCNC(=N)N)NC(=O)[C@@H](Cc2ccccc2)NC(=O)[C@H](CC(N)=O)NC1=O` [Compound 001554C, Ac-Arg-(hCys-Asn-D-Phe-Arg-Trp-Pen)-NH2] (Ac-R[hCys]N[dF]RW[Pen]-NH2; disulfide 2-7), at MC-3R, the EC50 is above 3000 nM and the “Selectivity Ratios MC4R/MC3R” value was above 1872.97. Also, the “Selectivity Ratios MC4R/MC1R” value on MC-1R is 146.75. On MC-5R, the “Selectivity Ratios MC4R/MC5R” value amounted to 459.17.
`CC(=O)N[C@@H](CCCNC(=N)N)C(=O)N[C@H]1CCSSC(C)(C)[C@@H](C(N)=O)NC(=O)[C@H](Cc2c[nH]c3ccccc23)NC(=O)[C@H](CCCNC(=N)N)NC(=O)[C@@H](Cc2ccccc2)NC(=O)[C@H](CCC(N)=O)NC1=O` [Compound 001555C, Ac-Arg-(hCys-Gln-D-Phe-Arg-Trp-Pen)-NH2] (Ac-R[hCys]Q[dF]RW[Pen]-NH2; disulfide 2-7): the “Selectivity Ratios MC4R/MC3R” value at MC-3R was found to be 2.68. In addition, the “Selectivity Ratios MC4R/MC1R” value on MC-1R is given as 244.35. On MC-5R, the “Selectivity Ratios MC4R/MC5R” value was determined as 639.81.
With `CC(=O)N[C@@H](CCCNC(=N)N)C(=O)N[C@H]1CCSSC(C)(C)[C@@H](C(N)=O)NC(=O)[C@H](Cc2c[nH]c3ccccc23)NC(=O)[C@H](CCCNC(=N)N)NC(=O)[C@@H](Cc2ccccc2)NC(=O)[C@H](CO)NC1=O` [Compound 001556C, Ac-Arg-(hCys-Ser-D-Phe-Arg-Trp-Pen)-NH2] (Ac-R[hCys]S[dF]RW[Pen]-NH2; disulfide 2-7), on MC-3R, the EC50 was above 3000 nM and the “Selectivity Ratios MC4R/MC3R” value is listed as above 1615.55. Besides, the “Selectivity Ratios MC4R/MC1R” value at MC-1R turned out to be 123.06. Moreover, the “Selectivity Ratios MC4R/MC5R” value at MC-5R is reported as 916.48.
Turning to `CC(=O)N[C@@H](CCCNC(=N)N)C(=O)N[C@H]1CCSSC(C)(C)[C@@H](C(N)=O)NC(=O)[C@H](Cc2c[nH]c3ccccc23)NC(=O)[C@H](CCCNC(=N)N)NC(=O)[C@@H](Cc2ccccc2)NC(=O)[C@H]([C@@H](C)O)NC1=O` [Compound 001574C, Ac-Arg-(hCys-Thr-D-Phe-Arg-Trp-Pen)-NH2] (Ac-R[hCys]T[dF]RW[Pen]-NH2; disulfide 2-7), at MC-3R, the EC50 was above 3000 nM and the “Selectivity Ratios MC4R/MC3R” value was above 2705.95. Further, the “Selectivity Ratios MC4R/MC1R” value on MC-1R is reported as 465.77. Further, the “Selectivity Ratios MC4R/MC5R” value at MC-5R is 1846.64.
Turning to `CC(=O)N[C@@H](CCCNC(=N)N)C(=O)N[C@H]1CCC(=O)NC[C@@H](C(N)=O)NC(=O)[C@H](Cc2c[nH]c3ccccc23)NC(=O)[C@H](CCCNC(=N)N)NC(=O)[C@@H](Cc2ccccc2)NC(=O)[C@H](CCC(N)=O)NC1=O` [Compound 001576C, Ac-Arg-(Glu-Gln-D-Phe-Arg-Trp-Dpr)-NH2], the “Selectivity Ratios MC4R/MC3R” value at MC-3R came out at 1.75. Besides, the “Selectivity Ratios MC4R/MC1R” value at MC-1R turned out to be 35.57. Besides, the “Selectivity Ratios MC4R/MC5R” value on MC-5R turned out to be 101.41.
In the case of `CC(=O)N[C@@H](CCCNC(=N)N)C(=O)N[C@H]1CSSC[C@@H](C(N)=O)NC(=O)[C@H](Cc2c[nH]c3ccccc23)NC(=O)[C@H](CCCNC(=N)N)NC(=O)[C@@H](Cc2ccccc2)NC(=O)[C@H](Cc2c[nH]cn2)NC(=O)[C@@H](C)NC1=O` [RM-493, reference compound], at MC-5R (cAMP agonist readout, MC-5R, read-out: EC-50 (nM) MC-5R), the EC50 turned out to be 1680 nM.
